Where two headings read alike, the source gives them in different places.
Legend:
Format in all cases: cell-based
SNU16 cells [1] = experiment: 5-Fluorouracil sensitivity, MTS proliferation assay; details: SNU16 cells before and after CD44-SLC1A2 siRNA1 silencing, vs scrambled siRNA
Procedure: (§1) Gastric cancer cells and primary tissues were lysed with glutamate assay buffer and glutamate concentrations were determined using a Glutamate Assay Kit (BioVision, USA). Briefly, to each cellular lysate, a vendor-provided glutamate Enzyme Mix was added which recognizes glutamate as a specific substrate leading to proportional color development. For cisplatin treatments, cells were seeded into 96 well plates after siRNA transfection. Subsequently, cisplatin or 5-FU at increasing dosages were added (0-1 mM) to respective wells. Cells were subjected to MTS proliferation assays after 48 hours of drug treatment. Each assay was performed in triplicate, and the results were averaged over three independent experiments.

SNU16 cells [2] = experiment: Cisplatin sensitivity, MTS proliferation assay; details: 48 hours of drug treatment, read-out: GI50 (concentration required to cause 50% growth inhibition)
Procedure: as §1

AGS cells = experiment: Cell proliferation assay, AGS fusion negative cells
Procedure: Gastric cancer cells were transfected with either specific siRNAs targeted to the CD44-SLC1A2 fusion site (100 nM, custom siRNA siGENOME with SMART selection, Dharmacon) or negative control scrambled siRNAs using siPORT™ NeoFX™ transfection reagent (Applied Biosystem) in Optimem Medium (Invitrogen) following the manufacturer's protocol. After 24, 48, and 72 hours siRNA treatment, cells were subjected for downstream analysis. For overexpression studies, the full length coding regions of CD44-SLC1A2 cDNA were inserted into the pEGFP-N1 vector. Control vectors or fusion-GFP vectors were introduced into HFE145 cells, and stable transfectants were selected using puromycin for 4 weeks. Cell proliferation assays were performed using a CellTiter-96 Aqueous Nonradioactive Cell Proliferation Assay kit (Promega) following the manufacturer's instructions and the plates were measured by PerkinElmer plate reader. Cell invasion assays were performed using Biocoat™ Matrigel™ invasion chambers with 8 μm pore filter inserts (BD Bioscience). 48 hours after transfection, 5×10^4 cells were transferred to the upper matrigel chamber in 500 μl of serum-free medium and incubated for 24 hours. Invading cells were counted using light microscopy. Each assay was performed in triplicate, and the results were averaged over three independent experiments. […]

SLC1A2 protein [3] = experiment: Western blotting with anti-SLC1A2 antibodies, SNU16 membrane fraction; details: after fusion-specific siRNA
Procedure: Cells were harvested in lysis buffer (10 mM Tris.Cl pH 7.5, 150 mM NaCl, 1% Triton X-114) for 1 hour at […], and centrifuged at 800 g. Supernatants were incubated at 30° C. for 5-10 min and further centrifuged at RT, 300 g. Western blotting was performed on membrane fractions using the following antibodies and dilutions: 1:500 SLC1A2/EAAT2 (Cell Signaling Technologies), 1:2000 α-tubulin (Cell Signaling Technologies). Experiments were repeated a minimum of three independent times.
(§2) Gastric cancer cells were transfected with either specific siRNAs targeted to the CD44-SLC1A2 fusion site (100 nM, custom siRNA siGENOME with SMART selection, Dharmacon) or negative control scrambled siRNAs using siPORT™ NeoFX™ transfection reagent (Applied Biosystem) in Optimem Medium (Invitrogen) following the manufacturer's protocol. After 24, 48, and 72 hours siRNA treatment, cells were subjected for downstream analysis. For overexpression studies, the full length coding regions of CD44-SLC1A2 cDNA were inserted into the pEGFP-N1 vector. Control vectors or fusion-GFP vectors were introduced into HFE145 cells, and stable transfectants were selected using puromycin for 4 weeks.

SNU16 cells [4] = experiment: Matrigel cell invasion assay, SNU16; details: vs control
Procedure: as §2
(§3) Cell proliferation assays were performed using a CellTiter-96 Aqueous Nonradioactive Cell Proliferation Assay kit (Promega) following the manufacturer's instructions and the plates were measured by PerkinElmer plate reader. Cell invasion assays were performed using Biocoat™ Matrigel™ invasion chambers with 8 μm pore filter inserts (BD Bioscience). 48 hours after transfection, 5×10^4 cells were transferred to the upper matrigel chamber in 500 μl of serum-free medium and incubated for 24 hours. Invading cells were counted using light microscopy. Each assay was performed in triplicate, and the results were averaged over three independent experiments.

CD44-SLC1A2 fusion gene = experiment: RT-PCR of CD44-SLC1A2 expression after fusion-specific siRNA treatment; details: SNU16 cells, siRNA 100 nM, vs scrambled siRNA
Procedure: (§4) Gastric cancer RNAs were reverse transcribed by SuperScript II reverse transcriptase enzyme using oligo-dT (T18) primers (Invitrogen). To detect CD44-SLC1A2, RT-PCR was performed using forward primers to CD44 exon 1 (5′-[…]-3′ (SEQ ID NO: 3)) and reverse primers to either SLC1A2 exon 3 (5′-[…]-3′ (SEQ ID NO: 4)); exon4 (5′-[…]-3′) (SEQ ID NO: 5); exons (5′-[…]-3′ (SEQ ID NO: 6)) or exon 6 (5′[…]-3′ (SEQ ID NO: 7)). Products were resolved by gel electrophoresis and bands of interest excised and cloned for subsequent analysis. To evaluate wild-type CD44 and SLC1A2 expression independently of CD44-SLC1A2, we used CD44 primers targeting exons 3, 4, 5; and SLC1A2 primers targeting exon 1. CD44-SLC1A2 RT-PCR involving clinical specimens (FIG. 1) was performed in an unselected cohort of gastric cancer patients. Reactions were repeated a minimum of three independent times.
(§5) Gastric cancer cells were transfected with either specific siRNAs targeted to the CD44-SLC1A2 fusion site (100 nM, custom siRNA siGENOME with SMART selection, Dharmacon) or negative control scrambled siRNAs using siPORT™ NeoFX™ transfection reagent (Applied Biosystem) in Optimem Medium (Invitrogen) following the manufacturer's protocol. After 24, 48, and 72 hours siRNA treatment, cells were subjected for downstream analysis. […]

SNU16 cells [5] = experiment: Cell proliferation assay, SNU16; details: vs scrambled/control siRNA
Procedure: as §2, §3

SNU16 cells [6] = experiment: Colony formation assay, SNU16; details: vs scrambled siRNA
Procedure: as §2
Base layers of 0.5% Gum Agar in 1× McCoy's 5 A and 10% FBS were poured into 6-well plates and allowed to harden at 4° C. After 48 hours siRNA transfection, 50,000 cells/well were seeded in complete media plus agar mixture at 42° C. and seeded on top of the solidified base layer. Plates were incubated at 37° C. in for 3-4 weeks, during which plates were fed drop-wise with complete media. After 3-4 weeks, plates were photographed using the Kodak GL 200 System (EpiWhite illumination). Each assay was performed in triplicate, and the results were averaged over three independent experiments.

SLC1A2 protein [7] = experiment: Immunofluorescence staining with SLC1A2 antibodies; details: SNU16 cells, control vs fusion silenced
Procedure: as §2
Cells were fixed with 3.7% formaldehyde followed by permeabilisation using 0.1% Triton X-100. After 3× washes with 1×PBS, cells were blocked with 1% BSA. Subsequently, cells were incubated with primary SLC1A2 antibodies (Cell Signaling Technology) for 2 hours followed by 2 hours secondary antibody (Sigma) incubation. Images were taken using a Nikon Eclipse TE2000-U microscope.

[8] = test system: wild-type CD44 and SLC1A2; experiment: RT-PCR of wild-type CD44 and SLC1A2 expression after fusion-specific siRNA treatment; details: SNU16 cells
Procedure: as §4, §5

Compound: O=c1[nH]cc(F)c(=O)[nH]1 [5-fluorouracil]
- 5-Fluorouracil sensitivity, control vs CD44-SLC1A2 silenced cells (SNU16 cells [1]): no differences between control and silenced cells were observed
- 5-Fluorouracil sensitivity, control vs CD44-SLC1A2 silenced cells (SNU16 cells [1]; listed as 5-Fluorouracil): no significant change in sensitivity to 5-Fluorouracil

Compound: N.N.[Cl][Pt][Cl] [cisplatin]
- GI50 (SNU16 cells [2]; SNU16 cells after CD44-SLC1A2 siRNA treatment): 3.96 µM
- GI50 (SNU16 cells [2]; control SNU16 cells): 11.8 µM

Compound: siRNA1: siRNA targeting the CD44-SLC1A2 fusion site, 5′-CGCAGAUCGUGCCAACAAUUU-3′ (SEQ ID NO: 27) (chemistry not given here)
- proliferation of AGS cells after fusion-specific siRNA (AGS cells): proliferation of AGS cells is not affected

Compound: siRNA2: second siRNA targeting the CD44-SLC1A2 fusion site, 5′-GCACAUCGUGCCAACAAUAUU-3′ (SEQ ID NO: 28) (chemistry not given here)
- SLC1A2 protein expression (Western blotting) (SLC1A2 protein [3]): knockdown of SLC1A2 protein expression
- cell invasion rate (SNU16 cells [4]): significant reduction of invasion rate
- CD44-SLC1A2 expression (CD44-SLC1A2 fusion gene): Reduction of CD44-SLC1A2 expression
- proliferation of AGS cells after fusion-specific siRNA (AGS cells): proliferation of AGS cells is not affected
- proliferation rate (SNU16 cells [5]): significant decrease in proliferation rate
- colony formation (anchorage-independent growth) (SNU16 cells [6]): reduction in numbers of colonies formed
- membranous expression of SLC1A2 (immunofluorescence) (SLC1A2 protein [7]): significantly reduced
- independent (regular) CD44 and SLC1A2 expression [8]: without impairing regular CD44 and SLC1A2 expression

— patent US20120258998A1, “Fusion genes in gastrointestinal cancer” (priority 2011, published 2012)
